Reference: patent publication US20260174748A1, “AGENT FOR ALLEVIATING CLOZAPINE-INDUCED SIALORRHEA” (National University Corporation Chiba University, priority 2022, published 2026)
Where two headings read alike, the source gives them in different places.

Experiments:
Type in all cases: in vivo, rat
CIS model rats [1] = test: Experiment 5: MK-801 in combination with NMDA receptor agonists D-serine or Glycine in CIS model rats; details: 3 times; for reduction in saliva amount by MK-801, compared to group B / resulting saliva amount relative to group A (control): 900 mg/kg oral, 1 hour later MK-801 0.1 mg/kg intraperitoneal; for reduction in saliva amount by MK-801, compared to group B: D-serine p<0.05, glycine p<0.01; for resulting saliva amount relative to group A (control): day 9
Experimental: (§1) Water and feed were limited from 1 hour before the saliva amount measurement.
(§2) As a method for measuring the amount of saliva, a small piece of cotton ball was placed in the mouth of the restrained rat and swabbed for 10 seconds (the saliva was absorbed into the cotton ball). This was repeated three times, and the mass change of the cotton ball was measured. The mass change was measured as the saliva amount collected over a total of 30 seconds.
Experiment 5 was performed on CIS model rats of groups A to D as follows.
• Group A (control): The solvent (5 mL/kg) was orally administered, and then 1 hour later, saline (1 mL/kg) was intraperitoneally administered. This administration was performed for a total of 3 times. • Group B: The solvent (5 mL/kg) was orally administered, and then 1 hour later, MK-801 (0.1 mg/kg) was intraperitoneally administered. This administration was performed for a total of 3 times. • Group C: D-serine (900 mg/kg) was orally administered, and then 1 hour later, MK-801 (0.1 mg/kg) was intraperitoneally administered. This administration was performed for a total of 3 times. • Group D: Glycine (900 mg/kg) was orally administered, and then 1 hour later, MK-801 (0.1 mg/kg) was intraperitoneally administered. This administration was performed for a total of 3 times.
Note that the administration was performed once in the morning and once in the afternoon on day 8 and once in the morning on day 9 for a total of 3 times. The saliva amount was measured 1 hour after the final administration.

CIS model rats [2] = test: Experiment 4: acute phase effect of MK-801 and SA4503 on clozapine-induced sialorrhea; details: total of 3 times, 1 hour after final administration
Experimental: as §1, §2
The alleviating effect (acute phase effect) on clozapine-induced sialorrhea by a selective NMDA receptor antagonist MK-801 and a selective sigma-1 receptor agonist SA4503 were investigated. Experiment 4 was performed on CIS model rats of groups A to C as follows.
• Group A (control): Intraperitoneal administration of saline (1 mL/kg) for a total of 3 times • Group B: Intraperitoneal administration of MK-801 (0.1 mg/kg) for a total of 3 times • Group C: Intraperitoneal administration of SA4503 (1 mg/kg) for a total of 3 times
Note that the intraperitoneal administration was performed once in the morning and once in the afternoon on day 8 and once in the morning on day 9 for a total of 3 times. The saliva amount was measured 1 hour after the final administration.

male Wister rats = test: Creation of CIS model animals: saliva amount after oral clozapine; details: for saliva amount: 7 days
Experimental: CIS model animals were created with reference to previous studies (Ishikawa S, J. Pharmacol. Exp. Ther., 2020, November; 375(2): 376-384).
As experimental animals, 6 to 8-week-old male Wister rats (made by CLEA Japan, Inc.) were used. The animals were freely ingested and fed on water and normal feed except for the period of time from 1 hour before the saliva amount measurement described below to the measurement.
as §1, §2

CIS model rats [3] = details: group B, DXM 30 mg/kg/day intraperitoneal on days 8 and 9 after clozapine 100 mg/kg/day days 1-7; p<0.01
Experimental: as §1, §2
In the above Experiment 1, the saliva amount was measured 24 hours after DXM administration. […] The following studies were performed on the acute phase effect of dextromethorphan (DXM) using the above-described CIS model animals (CIS model rats).
Swabs were conducted on a daily basis to accustom the model animals with saliva measurements.
• Group A: Intraperitoneal administration of saline (1 mL/kg) once per day • Group B: Intraperitoneal administration of DXM (30 mg/kg/day) once per day
On Day 9, the saliva amount was measured 1 hour after DXM administration.

CIS model rats [4] = details: for change in saliva amount from day 7 to day 9 (1 hour after administration): total of 3 times
Experimental: as §1, §2
The dose of dextromethorphan (DXM) was changed to examine the dose-dependency of clozapine-induced sialorrhea suppression effect.
The following studies were performed on the dose-dependency of the acute phase effect of DXM using the above-described CIS model animals (CIS model rats).
Note that swabs were performed on days 5 and 6 to accustom the model animals with the saliva measurement.
• Group A: Intraperitoneal administration of saline (1 mL/kg) for a total of 3 times • Group B: Intraperitoneal administration of saline (1 mL/kg) for a total of 3 times • Group C: Intraperitoneal administration of DXM (3 mg/kg) for a total of 3 times • Group D: Intraperitoneal administration of DXM (30 mg/kg) for a total of 3 times • Group E: Intraperitoneal administration of DXM (60 mg/kg) for a total of 3 times
The agent of the above dose was administered once in the morning and once in the afternoon on day 8 and once in the morning on day 9 for a total of 3 times. The saliva amount was measured 1 hour after the final administration.

CIS model rats [5] = details: group C
Experimental: as §1, §2
The dose and period of administration of the NMDA receptor antagonist dextromethorphan (DXM) were investigated using the above-described CIS model animals (CIS model rats). Experiment 1 was performed on CIS model rats of groups A to C as follows.
The saliva amount was measured before drug administration on day 14 (24 hours after drug administration up to day 13).

N[C@H](CO)C(=O)O [D-serine]
reduction in saliva amount by MK-801, compared to group B (CIS model rats [1]): significantly antagonized | resulting saliva amount relative to group A (control) (CIS model rats [1]): same level as that in group A

C[C@]12N[C@H](Cc3ccccc31)c1ccccc12 [MK-801, dizocilpine (MK-801)]
saliva amount on day 9 compared to group A (control) (CIS model rats [1]; group B, solvent oral then MK-801 0.1 mg/kg intraperitoneal, p<0.05): significantly reduced | saliva amount on day 9 compared to group A (control) (CIS model rats [2]; group B, MK-801 0.1 mg/kg intraperitoneal, p<0.01): significantly reduced

COc1ccc(CCN2CCN(CCCc3ccccc3)CC2)cc1OC [SA4503]
saliva amount on day 9 compared to group A (control) (CIS model rats [2]; group C, SA4503 1 mg/kg intraperitoneal, p<0.05): significantly reduced

CN1CCN(C2=Nc3cc(Cl)ccc3Nc3ccccc32)CC1 [clozapine]
saliva amount (male Wister rats; 25 mg/kg/day orally once per day): did not increase | saliva amount (male Wister rats; 50 mg/kg/day orally once per day, from day 3 of administration): increased significantly | saliva amount (male Wister rats; 100 mg/kg/day orally once per day, from day 3 of administration): increased significantly | amount of saliva secretion (male Wister rats; single oral dose of 25, 50 or 100 mg/kg/day, measured 4 times per day, every 6 hours from 1 hour after administration): no increase in the amount of saliva secretion was observed

COc1ccc2c(c1)[C@]13CCCC[C@@H]1[C@H](C2)N(C)CC3 [dextromethorphan]
saliva amount at 1 hour after administration on day 9 (CIS model rats [3]): significantly reduced | change in saliva amount from day 7 to day 9, group E compared to group C (CIS model rats [4]; DXM 60 mg/kg compared to DXM 3 mg/kg, intraperitoneal, 3 times, p<0.01): significantly reduced | dose-dependency of clozapine-induced sialorrhea suppression effect (CIS model rats [4]; DXM 3, 30, 60 mg/kg intraperitoneal): dose-dependent | change in saliva amount from day 7 to day 9 (1 hour after administration) (CIS model rats [4]; group D, DXM 30 mg/kg intraperitoneal, p<0.05): significantly reduced | change in saliva amount from day 7 to day 9 (1 hour after administration) (CIS model rats [4]; group E, DXM 60 mg/kg intraperitoneal, p<0.001): significantly reduced | change in saliva amount on day 14 based on the saliva amount on day 7 (CIS model rats [5]; DXM 30 mg/kg/day intraperitoneal + clozapine, compared to groups A and B, p<0.01): significantly reduced | saliva amount on day 14 (CIS model rats [5]; DXM 30 mg/kg/day intraperitoneal on days 8 to 13 in addition to clozapine 100 mg/kg/day, 24 hours after administration): reduction of saliva amount was observed

NCC(=O)O [glycine, Glycine]
reduction in saliva amount by MK-801, compared to group B (CIS model rats [1]): significantly antagonized | resulting saliva amount relative to group A (control) (CIS model rats [1]): same level as that in group A
